Experimental findings from ChEMBL document CHEMBL1201862, “PubChem BioAssay data set” (2004) are described below.

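How tested: cells in 96-well plates exposed to compound for 48 hours at five concentrations. GI50 marks 50% less growth.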 The source made the active and inactive calls. Rule as the data show it: active = GI50 up to about 1.1 µM and inactive = higher.

Test systems include RPMI-8226; NCI-H23; MDA-MB-435; ACHN; SR; NCI/ADR-RES; SK-MEL-5; OVCAR-3; UACC-62; DU-145; CCRF-CEM; A549; T47D; HOP-92; UACC-257; OVCAR-4; OVCAR-5; PC-3; A498; NCI-H226.
What all share (test): NCI tumour cell line growth inhibition, 48 h

For `CC(C)=NOC(=O)CNC(=O)C(Cc1ccccc1)NC(=O)C(C)NC(=O)OC(C)(C)C` (stereo not given), the GI50 in the experiment with RPMI-8226, in the experiment on NCI-H23, with MDA-MB-435, in the experiment on ACHN, with SR and in the experiment on NCI/ADR-RES was > 100 µM (inactive) in each case. For the same compound, the GI50 in the experiment on SK-MEL-5, with OVCAR-3, with UACC-62, with DU-145, with CCRF-CEM and in the experiment with A549 was > 100 µM (inactive) throughout. Besides, the GI50 in the experiment on T47D, in the experiment with HOP-92, in the experiment on UACC-257, with OVCAR-4, in the experiment with OVCAR-5 and in the experiment on PC-3 was > 100 µM (inactive) throughout. For the same compound, the GI50 in the experiment on A498 and in the experiment on NCI-H226 was > 100 µM (inactive) in each case.

For `CCOC(=O)c1sc(=S)n(-c2ccc(Cl)cc2)c1-n1cc(-c2ccccc2)c(C#N)c1N`, the GI50 in the experiment with RPMI-8226 is 26.5 µM (inactive); in the experiment on NCI-H23, 21.8 µM (inactive); with MDA-MB-435, 41 µM (inactive); in the experiment with ACHN it was 16.7 µM (inactive); in the experiment with SR it was 17.4 µM (inactive); with NCI/ADR-RES it was 16.9 µM (inactive). For the same compound, the GI50 is 16.3 µM (inactive) in the experiment on SK-MEL-5; 13.7 µM (inactive) with OVCAR-3; 24.8 µM (inactive) in the experiment with UACC-62; 6.81 µM (inactive) with DU-145; 31.8 µM (inactive) in the experiment on CCRF-CEM; 18.8 µM (inactive) with A549. Moreover, the GI50 is 13.1 µM (inactive) in the experiment with T47D; 15.4 µM (inactive) in the experiment on HOP-92; 41.4 µM (inactive) with UACC-257; 8.85 µM (inactive) with OVCAR-4; > 100 µM (inactive) in the experiment on OVCAR-5; 11.8 µM (inactive) with PC-3. Also, the GI50 in the experiment on A498 is 23.1 µM (inactive); with NCI-H226, 13.6 µM (inactive).

With `CC(C)(C)NCc1cc(Nc2ccnc3cc(Cl)ccc23)cc(-c2ccc(Cl)cc2)c1O`, the GI50 in the experiment with RPMI-8226 was 1.69 µM (inactive); in the experiment on NCI-H23, 3.64 µM (inactive); in the experiment with MDA-MB-435, 1.91 µM (inactive); in the experiment on ACHN, 4.29 µM (inactive); in the experiment with SR, 1.21 µM (inactive); with NCI/ADR-RES, 3.05 µM (inactive). In addition, the GI50 with SK-MEL-5 was 1.77 µM (inactive); with OVCAR-3, 2.66 µM (inactive); in the experiment on UACC-62, 1.92 µM (inactive); with DU-145, 4.53 µM (inactive); with CCRF-CEM it was 0.809 µM (active); with A549, 5.4 µM (inactive). Besides, the GI50 in the experiment on T47D was 3.27 µM (inactive); in the experiment with HOP-92, 1.87 µM (inactive); with UACC-257, 2.03 µM (inactive); with OVCAR-4, 3.36 µM (inactive); with OVCAR-5 it was 4.68 µM (inactive); in the experiment on PC-3, 1.99 µM (inactive). Moreover, the values for the GI50 in the experiment with A498 and with NCI-H226 were 2.94 µM (inactive) and 6.12 µM (inactive), respectively.

As for `N#Cc1c(N)nc(Sc2ccccc2N)c(C#N)c1-c1ccc(Cl)cc1`, the GI50 was 2.61 µM (inactive) in the experiment on RPMI-8226; 21.4 µM (inactive) in the experiment on NCI-H23; 11.7 µM (inactive) in the experiment with MDA-MB-435; 10.7 µM (inactive) with ACHN; 1 µM (active) in the experiment on SR; 6.4 µM (inactive) in the experiment with NCI/ADR-RES. In addition, the GI50 with SK-MEL-5 was 12.6 µM (inactive); with OVCAR-3, 6.34 µM (inactive); in the experiment with UACC-62, 4.06 µM (inactive); in the experiment with DU-145, 12.7 µM (inactive); in the experiment on CCRF-CEM, > 27.2 µM (inactive); with A549, 9.4 µM (inactive). Besides, the GI50 is 0.368 µM (active) in the experiment on T47D; 15.8 µM (inactive) with HOP-92; 15.9 µM (inactive) in the experiment with UACC-257; 17.8 µM (inactive) in the experiment with OVCAR-4; 27.1 µM (inactive) in the experiment with OVCAR-5; 3.71 µM (inactive) in the experiment on PC-3. Also, the GI50 with A498 is 2.65 µM (inactive); with NCI-H226 it was 37.2 µM (inactive).

On to `CS(=O)(=O)C(=Cc1ccccc1Cl)S(C)(=O)=O`, for which the GI50 in the experiment with RPMI-8226 was > 100 µM (inactive); in the experiment on NCI-H23 it was > 100 µM (inactive); in the experiment with MDA-MB-435 it was > 27.8 µM (inactive); in the experiment on ACHN it was > 100 µM (inactive); in the experiment on SR it was > 100 µM (inactive); in the experiment with NCI/ADR-RES, > 100 µM (inactive). Moreover, the GI50 with SK-MEL-5 is > 92 µM (inactive); in the experiment on OVCAR-3 it was > 100 µM (inactive); in the experiment on UACC-62 it was 24.4 µM (inactive); in the experiment with DU-145, > 100 µM (inactive); in the experiment on CCRF-CEM it was 25.5 µM (inactive); in the experiment with A549 it was > 100 µM (inactive). The GI50 in the experiment with T47D, in the experiment on HOP-92, with UACC-257, in the experiment with OVCAR-4, in the experiment with OVCAR-5 and in the experiment on PC-3 was > 100 µM (inactive) each time. For the same compound, the GI50 in the experiment on A498 and in the experiment on NCI-H226 was > 100 µM (inactive) in each case.

Consider `C=CCc1c(Cl)nc(Cl)nc1Cl`, for which the GI50 was 0.301 µM (active) with RPMI-8226; 0.422 µM (active) with NCI-H23; 0.321 µM (active) with MDA-MB-435; 0.346 µM (active) in the experiment with ACHN; < 0.01 µM (active) in the experiment on SR; 0.853 µM (active) in the experiment on NCI/ADR-RES. Also, the GI50 was 0.0818 µM (active) with SK-MEL-5; 0.161 µM (active) with OVCAR-3; 0.333 µM (active) in the experiment with UACC-62; 2.01 µM (inactive) in the experiment with DU-145; < 0.01 µM (active) with CCRF-CEM; 2.04 µM (inactive) with A549. Also, the GI50 is 0.313 µM (active) in the experiment with T47D; 0.255 µM (active) in the experiment with HOP-92; 0.641 µM (active) in the experiment on UACC-257; 0.243 µM (active) in the experiment with OVCAR-4; 0.678 µM (active) in the experiment with OVCAR-5; 0.733 µM (active) in the experiment with PC-3. The GI50 in the experiment with A498 is 1.94 µM (inactive); in the experiment with NCI-H226, 0.0421 µM (active).

Turning to `O=c1[nH]c(=O)n(C2CC(O)C(CO)O2)c2nc3cc4ccccc4cc3nc12` (stereo not given), the GI50 with RPMI-8226 was > 100 µM (inactive); in the experiment on NCI-H23, > 100 µM (inactive); in the experiment on MDA-MB-435, > 100 µM (inactive); in the experiment on ACHN it was > 100 µM (inactive); in the experiment on SR, 91.6 µM (inactive); with NCI/ADR-RES, > 100 µM (inactive). For the same compound, the GI50 with SK-MEL-5 was > 100 µM (inactive); in the experiment with OVCAR-3 it was > 100 µM (inactive); in the experiment with UACC-62, > 100 µM (inactive); in the experiment with DU-145 it was > 100 µM (inactive); in the experiment on CCRF-CEM it was 36.6 µM (inactive); with A549 it was > 100 µM (inactive). Further, the GI50 was > 100 µM (inactive) in the experiment with T47D; 79.1 µM (inactive) in the experiment on HOP-92; > 100 µM (inactive) in the experiment with UACC-257; > 100 µM (inactive) in the experiment with OVCAR-4; > 100 µM (inactive) in the experiment on OVCAR-5; > 100 µM (inactive) in the experiment on PC-3. Besides, the GI50 in the experiment on A498 and with NCI-H226 was > 100 µM (inactive) each time.

Take `O=C(OCC1CCCN2CCCCC12)c1ccncc1` (stereo not given): the GI50 with RPMI-8226, in the experiment with NCI-H23, in the experiment on MDA-MB-435, in the experiment with ACHN, in the experiment on SR and with NCI/ADR-RES was > 100 µM (inactive) each time. Further, the GI50 in the experiment with SK-MEL-5, with OVCAR-3, in the experiment on UACC-62, with DU-145, in the experiment on CCRF-CEM and with A549 was > 100 µM (inactive) each time. Besides, the GI50 in the experiment on T47D, in the experiment with HOP-92, in the experiment with UACC-257, in the experiment with OVCAR-4, in the experiment on OVCAR-5 and in the experiment on PC-3 was > 100 µM (inactive) throughout. The GI50 in the experiment on A498 and in the experiment with NCI-H226 was > 100 µM (inactive) in each case.

For the compound `O=C1CC[N+]2=Cc3ccccc3O[B-]2(c2ccccc2)O1` (stereo not given), the GI50 in the experiment on RPMI-8226, with NCI-H23, in the experiment with MDA-MB-435, in the experiment on ACHN, in the experiment on SR and with NCI/ADR-RES was > 100 µM (inactive) in each case. The GI50 in the experiment with SK-MEL-5 is 97.7 µM (inactive); in the experiment with OVCAR-3, > 100 µM (inactive); in the experiment on UACC-62 it was > 100 µM (inactive); in the experiment with DU-145, > 100 µM (inactive); in the experiment with CCRF-CEM it was > 100 µM (inactive); in the experiment on A549, > 100 µM (inactive). Further, the GI50 in the experiment with T47D is > 100 µM (inactive); with HOP-92, 21.5 µM (inactive); in the experiment on UACC-257, > 100 µM (inactive); in the experiment on OVCAR-4 it was > 100 µM (inactive); with OVCAR-5, > 100 µM (inactive); in the experiment with PC-3, > 100 µM (inactive). Besides, the GI50 in the experiment on A498 and in the experiment on NCI-H226 was > 100 µM (inactive) each time.

Consider `C/C(=N\NC(N)=S)c1ccccn1.OB(O)c1ccccc1`, for which the GI50 was 5.87 µM (inactive) in the experiment with RPMI-8226; 11.3 µM (inactive) in the experiment with NCI-H23; 7.55 µM (inactive) in the experiment on MDA-MB-435; 2.04 µM (inactive) with ACHN; 3.95 µM (inactive) in the experiment with SR; 3.7 µM (inactive) in the experiment on NCI/ADR-RES. In addition, the GI50 is 4.63 µM (inactive) in the experiment on SK-MEL-5; 2.62 µM (inactive) in the experiment on OVCAR-3; 3.25 µM (inactive) with UACC-62; 3.3 µM (inactive) in the experiment with DU-145; 2.18 µM (inactive) in the experiment on CCRF-CEM; 5.51 µM (inactive) in the experiment on A549. Besides, the GI50 was 3.8 µM (inactive) in the experiment on T47D; 10.4 µM (inactive) in the experiment on HOP-92; 4.47 µM (inactive) in the experiment with UACC-257; 4.25 µM (inactive) in the experiment on OVCAR-4; 6.05 µM (inactive) with OVCAR-5; 4.15 µM (inactive) in the experiment on PC-3. Further, the results for the GI50 in the experiment with A498 and with NCI-H226 were 5.89 µM (inactive) and 6.12 µM (inactive), respectively.
